{
  "source": "patent US10092541B2",
  "about": "“Methods for the treatment of diseases ameliorated by PDE4 inhibition using dosage titration of apremilast” (CELGENE CORPORATION, priority 2014, dated 2018)",
  "system": "patients with moderate to severe plaque psoriasis",
  "test": "Esteem 1: randomized, double-blind, placebo controlled, multicenter clinical study in psoriasis",
  "type": "in vivo, human",
  "conditions": "for PASI-75, %: primary endpoint",
  "procedure": "In the study 844 patients were enrolled; patients ranged in age from 18 to 83 years, with an overall median age of 46 years. The mean baseline body surface area (BSA) involvement was 25.19% (median 21.0%), the mean baseline PASI score was 19.07 (median 16.80), and the proportion of patients with sPGA score of 3 (moderate) and 4 (severe) at Baseline were 70.0% and 29.8%, respectively. Patients were randomized to Apremilast, in an amount of 30 mg twice per day (after the initial dose titration schedule) or placebo for the first 16 weeks, and from Weeks 16 to 32, all patients received Apremilast in an amount of 30 mg twice per day.\nTarget Dose: 30 mg (po) BID\nDay 1: 10 mg in the morning\nDay 2: 10 mg morning; 10 mg after noon\nDay 3: 10 mg morning; 20 mg after noon\nDay 4: 20 mg morning; 20 mg after noon\nDay 5: 20 mg morning; 30 mg after noon\nDuring the Randomized Treatment Withdrawal Phase (Weeks 32-52), patients originally randomized to Apremilast who achieved at least a 75% reduction in PASI score (PASI-75) at Week 32 were re-randomized to either placebo or Apremilast 30 mg BID. Patients who were re-randomized to placebo and who lost PASI-75 response at Week 32 compared to Baseline, were retreated with Apremilast 30 mg BID.",
  "key": {"[1]": {"conditions": "77 PASI 75 responders re-randomized to apremilast 30 mg BID at Week 32"}, "[2]": {"conditions": "Week 16, 30 mg twice daily, n = 562, LOCF"}, "[3]": {"conditions": "Week 16, 30 mg twice daily, n = 562, LOCF, listed as Apremilast"}, "[4]": {"conditions": "Week 16, 30 mg twice daily, patients with baseline DLQI >5, n = 459"}, "[5]": {"conditions": "Week 16, 30 mg twice daily, patients with nail psoriasis at baseline, n = 363"}},
  "note": "Marks after values point to notes of the source that are not given here.",
  "data": [
    {"smiles": "CCOc1cc([C@@H](CS(C)(=O)=O)N2C(=O)c3cccc(NC(C)=O)c3C2=O)ccc1OC", "note": "[apremilast, (+)-2-[1-(3-ethoxy-4-methoxyphenyl)-2-methylsulfonylethyl]-4-acetylaminoisoindoline-1,3-dione]", "values": [
      {"measurement": "Non-overlapping confidence intervals vs placebo in mean percentage improvement in PASI from baseline, first detected", "setting": "30 mg twice daily", "value": "as early as Week 2"},
      {"measurement": "Responses to apremilast from Weeks 16 to 32", "setting": "30 mg twice daily", "value": "generally maintained"},
      {"measurement": "regained PASI 75 response after re-treatment, %", "setting": "64 patients re-randomized to placebo who re-initiated apremilast before Week 52 after losing PASI 75", "value": 70.3, "unit": "%"},
      {"measurement": "PASI-75 response at Week 52, %", "setting": "[1]", "value": 61.0, "unit": "%"},
      {"measurement": "at least 70% improvement in PASI score from baseline at Week 52, %", "setting": "[1]", "value": 75.3, "unit": "%"},
      {"measurement": "Mean change in DLQI score", "setting": "[2]", "value": "−6.6"},
      {"measurement": "PASI-50, %", "setting": "[2]", "value": "(58.7%)*"},
      {"measurement": "PASI-90, %", "setting": "[2]", "value": "(9.8%)*"},
      {"measurement": "Percentage change in PASI score, mean (SD)", "setting": "[2]", "value": "−52.1", "unit": "%"},
      {"measurement": "Percentage change in PASI score, median (range)", "setting": "[2]", "value": "−59.0", "unit": "%"},
      {"measurement": "sPGA response (score 0 or 1 with at least two-point reduction), %", "setting": "[2]", "value": 21.7, "unit": "%"},
      {"measurement": "sPGA response (score 0 or 1 with at least two-point reduction), %", "setting": "[3]", "value": "(21.7%)*"},
      {"measurement": "PASI-75, %", "setting": "[2]", "value": 33.1, "unit": "%"},
      {"measurement": "PASI-75, %", "setting": "[3]", "value": "(33.1%)*"},
      {"measurement": "DLQI + PASI-50 response, %", "setting": "[4]", "value": "(48.1%)*"},
      {"measurement": "DLQI response (decrease of at least five points), %", "setting": "[4]", "value": "(70.2%)*"},
      {"measurement": "NAPSI-50, %", "setting": "[5]", "value": "(33.3%)*"},
      {"measurement": "Percentage change in NAPSI score, mean (SD)", "setting": "[5]", "value": "−22.5", "unit": "%"},
      {"measurement": "ScPGA score 0-1, %", "setting": "Week 16, 30 mg twice daily, patients with scalp psoriasis (ScPGA at least 3) at baseline, n = 374", "value": "(46.5%)*"},
      {"measurement": "Severity of the majority of adverse events", "setting": "did not lead to discontinuation", "value": "mild to moderate"},
      {"measurement": "5 most common adverse events (AEs)", "setting": "human, in vivo", "value": "diarrhea, nausea, upper respiratory tract infection, tension headache, and headache"},
      {"measurement": "Discontinuation due to upper respiratory tract infection", "setting": "human, in vivo", "value": "No patient discontinued"},
      {"measurement": "Discontinuations due to AEs: diarrhea", "setting": "human, in vivo", "value": 0.8, "unit": "%"},
      {"measurement": "Discontinuations due to AEs: headache", "setting": "human, in vivo", "value": 0.4, "unit": "%"},
      {"measurement": "Discontinuations due to AEs: nausea", "setting": "human, in vivo", "value": 1.2, "unit": "%"},
      {"measurement": "Discontinuations due to AEs: tension headache", "setting": "human, in vivo", "value": 0.2, "unit": "%"},
      {"measurement": "Mean percentage change from baseline in PASI score at Week 52", "setting": "patients re-randomized to apremilast 30 mg BID at Week 32", "value": 80.5, "unit": "%"},
      {"measurement": "Median time to first loss of PASI 75 after re-randomization", "setting": "patients re-randomized to apremilast at Week 32", "value": 17.7, "unit": "weeks"},
      {"measurement": "signs and symptoms of psoriasis", "setting": "study conclusion", "value": "significantly improved"}
    ]}
  ]
}
